According to ChEMBL document CHEMBL1671687, “Enhancement of biofilm formation by subinhibitory concentrations of macrolides in icaADBC-positive and -negative clinical isolates of Staphylococcus epidermidis” (2010):
Activity calls are given as the source filed them. No cut-off for these calls is given here.

Key:
[1] = tested on: Staphylococcus epidermidis; assay: Enhancement of biofilm formation Staphylococcus epidermidis SW126 expressing icaA gene at 1/4 X MIC by microtiter plate assay; type: functional
[2] = tested on: Staphylococcus epidermidis; assay: Enhancement of biofilm formation Staphylococcus epidermidis SW099 at 1/4 X MIC by microtiter plate assay; type: functional
[3] = tested on: Staphylococcus epidermidis; assay: Upregulation of fruA gene expression in Staphylococcus epidermidis SW029 at 8 ug/ml after 6 hrs by RT-PCR relative to untreated control; type: functional
[4] = tested on: Staphylococcus epidermidis; assay: Upregulation of atlE gene expression in Staphylococcus epidermidis SW036 at 8 ug/ml after 6 hrs by RT-PCR relative to untreated control; type: functional
[5] = tested on: Staphylococcus epidermidis; assay: Upregulation of sarA gene expression in Staphylococcus epidermidis SW036 at 8 ug/ml after 6 hrs by RT-PCR relative to untreated control; type: functional
[6] = tested on: Staphylococcus epidermidis; assay: Enhancement of biofilm formation Staphylococcus epidermidis SW067 expressing icaA gene at 1/4 X MIC by microtiter plate assay; type: functional
[7] = tested on: Staphylococcus epidermidis; assay: Upregulation of atlE gene expression in Staphylococcus epidermidis SW029 at 8 ug/ml after 6 hrs by RT-PCR relative to untreated control; type: functional
[8] = tested on: Staphylococcus epidermidis; assay: Antimicrobial activity against Staphylococcus epidermidis SW036 assessed as enhancement of biofilm formation after 18 hrs by microtiter plate assay; type: functional
[9] = tested on: Staphylococcus epidermidis; assay: Enhancement of biofilm formation Staphylococcus epidermidis SW082 at 1/4 X MIC by microtiter plate assay; type: functional
[10] = tested on: Staphylococcus epidermidis; assay: Enhancement of biofilm formation Staphylococcus epidermidis SW036 at 1/4 X MIC by microtiter plate assay; type: functional
[11] = tested on: Staphylococcus epidermidis; assay: Antimicrobial activity against Staphylococcus epidermidis SW029 expressing icaA gene assessed as increased biofilm formation at 6 to 12 hrs by CLSM; type: functional, organism-based
[12] = tested on: Staphylococcus epidermidis; assay: Enhancement of biofilm formation Staphylococcus epidermidis SW058 expressing icaA gene at 1/4 X MIC by microtiter plate assay; type: functional
[13] = tested on: Staphylococcus epidermidis; assay: Upregulation of icaA gene expression in Staphylococcus epidermidis SW029 at 8 ug/ml after 24 hrs by RT-PCR relative to untreated control; type: functional
[14] = tested on: Staphylococcus epidermidis; assay: Enhancement of biofilm formation Staphylococcus epidermidis SW115 at 1/4 X MIC by microtiter plate assay; type: functional
[15] = tested on: Staphylococcus epidermidis; assay: Downregulation of sigB gene expression in Staphylococcus epidermidis SW029 at 8 ug/ml after 24 hrs by RT-PCR relative to untreated control; type: functional
[16] = tested on: Staphylococcus epidermidis; assay: Enhancement of biofilm formation Staphylococcus epidermidis SW015 at 1/4 X MIC by microtiter plate assay; type: functional
[17] = tested on: Staphylococcus epidermidis; assay: Upregulation of sarA gene expression in Staphylococcus epidermidis SW029 at 8 ug/ml after 24 hrs by RT-PCR relative to untreated control; type: functional
[18] = tested on: Staphylococcus epidermidis; assay: Enhancement of biofilm formation Staphylococcus epidermidis SW088 at 1/4 X MIC by microtiter plate assay; type: functional
[19] = tested on: Staphylococcus epidermidis; assay: Antimicrobial activity against Staphylococcus epidermidis SW036 at 1/1024 X MIC; type: functional, organism-based
[20] = tested on: Staphylococcus epidermidis; assay: Upregulation of sigB gene expression in Staphylococcus epidermidis SW036 at 8 ug/ml after 6 hrs by RT-PCR relative to untreated control; type: functional
[21] = tested on: Staphylococcus epidermidis; assay: Upregulation of atlE gene expression in Staphylococcus epidermidis SW029 at 8 ug/ml after 24 hrs by RT-PCR relative to untreated control; type: functional
[22] = tested on: Staphylococcus epidermidis; assay: Upregulation of pyrR gene expression in Staphylococcus epidermidis SW029 at 8 ug/ml after 6 hrs by RT-PCR relative to untreated control; type: functional
[23] = tested on: Staphylococcus epidermidis; assay: Enhancement of biofilm formation Staphylococcus epidermidis SW098 expressing icaA gene at 1/4 X MIC by microtiter plate assay; type: functional
[24] = tested on: Staphylococcus epidermidis; assay: Antimicrobial activity against compound pretreated Staphylococcus epidermidis biofilms; type: functional
[25] = tested on: Staphylococcus epidermidis; assay: Upregulation of pyrR gene expression in Staphylococcus epidermidis SW036 at 8 ug/ml after 6 hrs by RT-PCR relative to untreated control; type: functional
[26] = tested on: Staphylococcus epidermidis; assay: Enhancement of biofilm formation Staphylococcus epidermidis SW027 expressing icaA gene at 1/4 X MIC by microtiter plate assay; type: functional
[27] = tested on: Staphylococcus epidermidis; assay: Effect on polysaccharide secretion in Staphylococcus epidermidis SW029 expressing icaA gene at 12 hrs by SEM; type: functional, organism-based
[28] = tested on: Staphylococcus epidermidis; assay: Antimicrobial activity against Staphylococcus epidermidis SW036; type: functional
[29] = tested on: Staphylococcus epidermidis; assay: Enhancement of biofilm formation Staphylococcus epidermidis SW021 at 1/4 X MIC by microtiter plate assay; type: functional
[30] = tested on: Staphylococcus epidermidis; assay: Enhancement of biofilm formation Staphylococcus epidermidis SW032 expressing icaA gene at 1/4 X MIC by microtiter plate assay; type: functional
[31] = tested on: Staphylococcus epidermidis; assay: Enhancement of biofilm formation Staphylococcus epidermidis SW029 expressing icaA gene at 1/4 X MIC by microtiter plate assay; type: functional
[32] = tested on: Staphylococcus epidermidis; assay: Enhancement of biofilm formation Staphylococcus epidermidis ATCC 35984 expressing icaA gene at 1/4 X MIC by microtiter plate assay; type: functional
[33] = tested on: Staphylococcus epidermidis; assay: Enhancement of biofilm formation Staphylococcus epidermidis SW104 expressing icaA gene at 1/4 X MIC by microtiter plate assay; type: functional
[34] = tested on: Staphylococcus epidermidis; assay: Enhancement of biofilm formation Staphylococcus epidermidis SW120 at 1/4 X MIC by microtiter plate assay; type: functional
[35] = tested on: Staphylococcus epidermidis; assay: Antimicrobial activity against Staphylococcus epidermidis SW029 expressing icaA gene; type: functional
[36] = tested on: Staphylococcus epidermidis; assay: Upregulation of sigB gene expression in Staphylococcus epidermidis SW029 at 8 ug/ml after 6 hrs by RT-PCR relative to untreated control; type: functional
[37] = tested on: Staphylococcus epidermidis; assay: Antimicrobial activity against Staphylococcus epidermidis lacking compound-induced biofilms assessed as biofilm formation at 1/4 X MIC relative to untreated control; type: functional
[38] = tested on: Staphylococcus epidermidis; assay: Enhancement of biofilm formation Staphylococcus epidermidis SW071 at 1/4 X MIC by microtiter plate assay; type: functional
[39] = tested on: Staphylococcus epidermidis; assay: Enhancement of biofilm formation Staphylococcus epidermidis SW061 expressing icaA gene at 1/4 X MIC by microtiter plate assay; type: functional
[40] = tested on: Staphylococcus epidermidis; assay: Antimicrobial activity against Staphylococcus epidermidis SW029 expressing icaA gene assessed as enhancement of biofilm formation after 18 hrs by microtiter plate assay; type: functional
[41] = tested on: Staphylococcus epidermidis; assay: Upregulation of sarA gene expression in Staphylococcus epidermidis SW029 at 8 ug/ml after 6 hrs by RT-PCR relative to untreated control; type: functional
[42] = tested on: Staphylococcus epidermidis; assay: Enhancement of biofilm formation Staphylococcus epidermidis SW045 expressing icaA gene at 1/4 X MIC by microtiter plate assay; type: functional
[43] = tested on: Staphylococcus epidermidis; assay: Enhancement of biofilm formation Staphylococcus epidermidis SW085 expressing icaA gene at 1/4 X MIC by microtiter plate assay; type: functional
[44] = tested on: Staphylococcus epidermidis; assay: Antimicrobial activity against Staphylococcus epidermidis SW029 expressing icaA gene assessed as formation of multilayer biofilms at 48 hrs by SEM; type: functional, organism-based
[45] = tested on: Staphylococcus epidermidis; assay: Enhancement of biofilm formation Staphylococcus epidermidis SW070 at 1/4 X MIC by microtiter plate assay; type: functional
[46] = tested on: Staphylococcus epidermidis; assay: Upregulation of icaA gene expression in Staphylococcus epidermidis SW029 at 8 ug/ml after 6 hrs by RT-PCR relative to untreated control; type: functional
[47] = tested on: Staphylococcus epidermidis; assay: Antimicrobial activity against Staphylococcus epidermidis lacking compound-induced biofilms; type: functional
[48] = tested on: Staphylococcus epidermidis; assay: Antimicrobial activity against compound pretreated Staphylococcus epidermidis assessed as biofilm formation at 1/4 X MIC relative to untreated control; type: functional
[49] = tested on: Staphylococcus epidermidis; assay: Upregulation of fruA gene expression in Staphylococcus epidermidis SW036 at 8 ug/ml after 6 hrs by RT-PCR relative to untreated control; type: functional

MIC [24]: ≥ 32 µg/mL
MIC [28]: > 128 µg/mL
MIC [35]: > 128 µg/mL
MIC [47]: ≥ 16 µg/mL
SMILES: CC[C@H]1OC(=O)[C@H](C)[C@@H](O[C@H]2C[C@@](C)(OC)[C@@H](O)[C@H](C)O2)[C@H](C)[C@@H](O[C@@H]2O[C@H](C)C[C@H](N(C)C)[C@H]2O)[C@](C)(O)C[C@@H](C)C(=O)[C@H](C)[C@@H](O)[C@]1(C)O [ERYTHROMYCIN]
Activity [1]: 56.1%
Activity [2]: 55.7%
fold change (FC) [3]: 4.5
fold change (FC) [4]: 1.8
fold change (FC) [5]: 1.7
Activity [6]: 150.3%
fold change (FC) [7]: 6.2
Activity [8]: 100%
Activity [9]: 58.7%
Activity [10]: 284.3%
Activity [11]: inactive
Activity [12]: 37.9%
fold change (FC) [13]: 2.8
Activity [14]: 166.8%
fold change (FC) [15]: 0.6
Activity [16]: 87.8%
fold change (FC) [17]: 6.9
Activity [18]: 163.1%
Activity [19]: Active
fold change (FC) [20]: 1.4
fold change (FC) [21]: 2.4
fold change (FC) [22]: 3.7
Activity [23]: 93.9%
fold change (FC) [25]: 2.4
Activity [26]: 60.4%
Activity [27]: inactive
Activity [29]: 34.7%
Activity [30]: 78.5%
Activity [31]: 159.6%
Activity [32]: 7%
Activity [33]: 63.2%
Activity [34]: 69.4%
fold change (FC) [36]: 2
Ratio [37]: 1.02
Activity [38]: 230.4%
Activity [39]: 50.8%
Activity [40]: 173%
fold change (FC) [41]: 1.7
Activity [42]: 47.2%
Activity [43]: 297.8%
Activity [44]: inactive
Activity [45]: 172.2%
fold change (FC) [46]: 1.2
Ratio [48]: 2.51
fold change (FC) [49]: 2.4
